From US6596765B2, “Treatment of ocular hypertension and glaucoma” (Sucampo AG, priority 2000, dated 2003)

Legend:
[1] = system: monkey eye; assay: IOP test after a single topical ocular instillation in monkeys (Example 1); format: in vivo, cynomolgus monkeys; settings: 0.0005% solution, 35 μL/eye; for intraocular pressure lowering effect (in words): compared with vehicle-treated contralateral eye, Student's t-test
Description: This Example is an IOP test using the monkey eye in which about one tenth the clinical dose of latanoprost is compared in IOP reduction with the same dose of 15-keto latanoprost.
The intraocular pressure lowering effects of the 0.0005% solution of 13,14-dihydro-15-keto-17-phenyl-18,19,20-trinor-PGF2α-isopropyl ester (15-keto-latanoprost) and the 0.0005% solution of 13,14-dihydro-17-phenyl-18,19,20-trinor-PGF2α-isopropyl ester (latanoprost) were compared following a single, topical ocular instillation in monkeys.
The solution containing 15-keto-latanoprost or latanoprost at 0.0005% was prepared with the following vehicle. Composition of the vehicle^1) (/mL): NaCl (4.1 mg), NaH2PO4—H2O (4.6 mg), Na2HPO4—2H2O (5.94 mg), Benzalkonium Chloride (0.2 mg) and water for injection
Five male cynomolgus monkeys purchased from Kasyo Co., Ltd. were used. These monkeys were housed individually in cages for monkeys in a room which was maintained at room temperature of 24±1° C., relative humidity of 55±10%, ventilation rate of about 12 times/hour and 12-hour light-dark cycle (fluorescent lighting: 8:00 a.m. to 8:00 p.m.). The animals were given food pellets for monkeys (PS, Oriental Yeast Co., Ltd.), vegetables and fruits, and allowed free access to tap water from an automatic dispenser. The healthy animals without abnormalities in the anterior segment of the eye were used in this study.
Five monkeys were divided into 2 groups of the group 1 (3 monkeys) and group 2 (2 monkeys). […]
The animals were systemically anesthetized by an intramuscular injection of 5 mg/kg of ketamine hydrochloride (Ketalar®50, Sankyo Co., Ltd.), and the anterior segment of both eyes was anesthetized by a instillation of 0.4% oxybuprocaine hydrochloride (Benoxil® 0.4% solution, Santen Pharmaceutical Co., Ltd.). The animals were fixed in a sitting position, and the intraocular pressure was measured by use of an applanation pneumatonograph (Alcon Japan Ltd.) before, and 2, 4, 8, 12 and 24 hours after the instillation. […]
The data were statistically analyzed with Student's t-test.

[2] = latanoprost at its clinical concentration; cited from earlier work
[3] = system: monkey eye; assay: IOP after additional instillation 12 hours after instillation of 0.005% latanoprost in monkeys (Example 2); format: in vivo, cynomolgus monkeys; settings: 30 μL; for effect on IOP of additional instillation, compared with 0.005% latanoprost alone: 0.0005% solution, instilled 12 hours after instillation of 0.005% latanoprost, IOP followed to 32 hours
Description: This Example illustrates the employment of a low dose of 15-keto latanoprost for maintaining a low IOP level following single administration of another IOP reducing agent for obtaining a rapid drop in IOP.
The changes of IOP in 3 different treatment groups were compared to investigate the significance of the presence of 15-keto acid of latanoprost, a 13,14-dihydro-15-keto type metabolite, in maintaining the IOP lowering effect observed after instillation of latanoprost.
15-keto-latanoprost and latanoprost which were synthesized in Ueno Institute for Medical Science were used.
Six male cynomolgus monkeys (body weight: 3.2-3.8 kg) were used. These monkeys were housed individually in cages for monkeys in a monkey rearing room which was maintained at room temperature of 24±1° C., relative humidity of 55±10%, and ventilation of about 12 times/hour and a 12-hour light-dark cycle (fluorescent lighting: 8:00 a.m. to 8:00 p.m.). The animals were given solid food for monkeys (PS, Oriental Yeast Co., Ltd.), vegetables and fruits, and allowed free access to tap water from an automatic dispenser. The healthy animals without abnormalities in the anterior segment were used in this study.
0.0005% and 0.005% latanoprost eye drops and 0.0005% 15-keto-latanoprost eye drops were prepared with a vehicle consisting of the following composition. The composition of the vehicles in 1 mL was as follows: sodium chloride (4.1 mg), sodium hydrogenphosphate-1H2O (4.6 mg), disodium hydrogenphosphate-2H2O (5.94 mg), benzalkonium chloride (0.200 mg) and water for injection (1 mL).
In the present study, changes in IOP after instillation of 0.005% latanoprost alone at the clinical concentration were compared with those in IOP after additional instillation of 0.0005% latanoprost or 0.0005% 15-keto-latanoprost 12 hours after instillation of 0.005% latanoprost to investigate the significance of the presence of a 13,14-dihydro-15-keto type metabolite in maintaining the IOP lowering effect observed after instillation of latanoprost.
The following 3 treatments were given to the right eye of monkeys at the intervals of at least 10 days. […]
After the ocular surface of monkeys was anesthetized with 0.4% oxybuprocaine hydrochloride (Benoxil® 0.4% solution, Santen Pharmaceutical Co., Ltd.) under i.m. systemic anesthesia with 5-7.5 mg/kg of ketamine hydrochloride, IOP was measured with an applanation pneumatonograph (Alcon Japan Ltd.). IOP was measured before instillation and at 4, 8, 12, 16, 20, 24, 28 and 32 hours after instillation of 0.005% latanoprost.

[4] = Ocular side effects of topical application (stated, no method described); format: in vivo; settings: 15-keto latanoprost at the dosages described herein
[5] = single instillation of 0.005% latanoprost (clinical concentration), right eye

For CC(C)OC(=O)CCC/C=C\C[C@@H]1[C@@H](CC[C@@H](O)CCc2ccccc2)[C@H](O)C[C@@H]1O [latanoprost, 13,14-dihydro-17-phenyl-18,19,20-trinor-PGF2α-isopropyl ester], the “intraocular pressure lowering effect (in words)” value [1] is given as “did not lower the intraocular pressure”, the “ocular side effects (iris pigmentation, IOP spike, hyperemia)” value [2] is given as “can cause pigmentation of the iris, a mild IOP spike and/or mild hyperemia” and the “effect on IOP of additional instillation, compared with 0.005% latanoprost alone” value [3] is given as “did not affect IOP”. The “time at which intraocular pressure returned to the predosing level” value [3, 5] was 24 h and the “time of maximum reduction of intraocular pressure after instillation” value [3, 5] was 12 h.
With CC(C)OC(=O)CCC/C=C\C[C@@H]1[C@@H](CCC(=O)CCc2ccccc2)[C@H](O)C[C@@H]1O [15-keto-latanoprost, 13,14-dihydro-15-keto-17-phenyl-18,19,20-trinor-PGF2α-isopropyl ester] the “ocular side effects (iridic pigmentation, initial IOP spike, hyperemia)” value [4] was “does not cause iridic pigmentation, an initial IOP spike nor any hyperemia”, the “intraocular pressure lowered as compared with the pre-treatment value” ([1]; 8 hours after the instillation, n=5) was 2.4 mmHg and the “intraocular pressure lowering effect (in words)” value [1] was “statistically significant”. The “effect on IOP of additional instillation, compared with 0.005% latanoprost alone” value [3] was “maintained at significantly low levels”.
